Experiment in all cases: MHC II competition binding assay
The target in one test is T1, DRB1*0101 (Homo sapiens, UniProt P01903+P01911, A100R/D57E/F55L/F60I/F76Y/I96L/L162R/M171V/P40L/Q125E/R42F/V115G/Y59C).
T1 construct: purchased Benaroya Research Institute (Seattle, Wash.)
The protocol: (§1) MHC Binding Assays. MHC II competition binding assays were performed using a 384-well high throughput assay as previously described (Salvat, et al. (2014) supra). Binding assays were performed for the eight alleles: DRB1*0101, 0301, 0401, 0701, 0801, 1101, 1301, and 1501. Briefly, 100 nM biotinylated control peptides composed of known peptide antigens for each MHC II allele were incubated in polypropylene 384-well plates with 50 nM purified recombinant MHC II protein and serial dilutions of LST or variant peptide fragments (100 μM to 10 nM). Peptide-MHC II complexes were captured from equilibrated solutions using the conformation specific anti-HLA-DR antibody L243 coated on high binding ELISA plates. Bound control peptide was quantified using the DELFIA streptavidin-Europium conjugate and time resolved fluorescence (SpectraMax Gemini Fluorescence Microplate Reader).

A further test concerns the target DRB1*0701 (Homo sapiens, UniProt P01903+P01911, A100R/A102G/A103Q/D57E/D86V/E43K/F76Y/K127E/L162R/M171V/P40G/Q125H/Q99D/R33Q/R42Y/R54Q/S133A/S66F/T210M/V115G/Y107V/Y59L/Y89S). As to the method: as §1
In another test the target is DRB1*1301 (Homo sapiens, UniProt P01903+P01911, A100E/A169T/K41T/L162R/M171V/P40S/Q125H/Q178H/Q39Y/Q99D/R42S/S66N/T262R/W38E/Y61H). As to the method:
as §1

The next test addresses T2, DRB1*1501 (Homo sapiens, UniProt P01903+P01911).
T2 construct: purchased Benaroya Research Institute (Seattle, Wash.)
The protocol:
as §1, with “MHC II competition binding assays were performed using a 384-well high throughput assay as previously described (Salvat, et al. (2014) supra). Binding assays were performed for the eight alleles: DRB1*0101, 0301, 0401, 0701, 0801, 1101, 1301, and 1501.” left out

The next test has as its target T3, DRB1*0301 (Homo sapiens, UniProt P01903+P01911, A100K/A102G/A103R/A169T/F55Y/I96L/K41T/L162R/M171V/P40S/Q125H/Q178H/Q39Y/R42S/S66N/T106N/T262R/W38E/Y61H).
T3 construct: purchased Benaroya Research Institute (Seattle, Wash.)
As to the method: as §1

The next test addresses T4, DRB1*0401 (Homo sapiens, UniProt P01903+P01911, A100K/A169T/F76Y/I96L/K127E/L162R/M171V/N62H/P40V/Q125Y/R42H/S133A/S149N/S66Y/V115G/V209L/W38E).
T4 construct: purchased Benaroya Research Institute (Seattle, Wash.)
As to the method: as §1

Another test has as its target DRB1*0801 (Homo sapiens, UniProt P01903+P01911, A100R/A103L/A169T/D86S/F76Y/H45Y/I96F/K41T/L162R/M171V/P40S/Q125H/Q178H/Q39Y/Q99D/R218S/R42G/S66Y/V115G/W38E). As to the method: as §1
The next test concerns the target DRB1*1101 (Homo sapiens, UniProt P01903+P01911, A100R/A169T/A87E/I96F/K41T/L162R/M171V/P40S/Q125H/Q178H/Q39Y/Q99D/R42S/S66Y/T262R/V115G/W38E). The protocol:
as §1

The mark [1] stands for this setting: synthetic peptide competing with biotinylated control peptide, read-out: IC50 0301.
Setting [2] is: synthetic peptide competing with biotinylated control peptide, read-out: IC50 0401.
[3] abbreviates: synthetic peptide competing with biotinylated control peptide, read-out: IC50 0701.
[4] abbreviates: synthetic peptide competing with biotinylated control peptide, read-out: IC50 0801.
The mark [5] stands for this setting: synthetic peptide competing with biotinylated control peptide, read-out: IC50 1501.
[6] abbreviates: synthetic peptide competing with biotinylated control peptide, read-out: IC50 0101.

The values below come from US11091749B2, “Deimmunized lysostaphin and methods of use” (TRUSTEES OF DARTMOUTH COLLEGE, priority 2014, dated 2021).

Like-named read-outs stand apart in the source and are kept apart here. Where no end group is shown, it is not given here.

Turning to `CSCC[C@H](NC(=O)[C@H](Cc1ccc(O)cc1)NC(=O)[C@H](Cc1c[nH]c2ccccc12)NC(=O)[C@H](CCC(N)=O)NC(=O)[C@H](CCCNC(=N)N)NC(=O)[C@H](Cc1c[nH]cn1)NC(=O)[C@@H](NC(=O)CN)C(C)C)C(=O)N[C@@H](Cc1c[nH]cn1)C(=O)N[C@@H](CC(C)C)C(=O)N[C@@H](CO)C(=O)N[C@@H](CCCCN)C(=O)N[C@@H](Cc1ccc(O)cc1)C(=O)N[C@@H](CC(N)=O)C(=O)N[C@H](C(=O)N[C@@H](CCCCN)C(=O)N[C@H](C(=O)NCC(=O)N[C@@H](CC(=O)O)C(=O)O)C(C)C)C(C)C` [Design C3WT], at DRB1*0101, the “binder class DRB1*0101” value is recorded as “strong (strong binder if an IC50 value of less than 0.1 μM was observed)”. For the same molecule, the “binder class DRB1*0701” value at DRB1*0701 is recorded as “strong (strong binder if an IC50 value of less than 0.1 μM was observed)”. Also, the “binder class DRB1*1301” value at DRB1*1301 is “weakly”. Besides, the “binder class DRB1*1501” value on DRB1*1501 is “weak (weak if an IC50 value was in the 1-10 μM range)”.

Broadly, the IC50 is the concentration needed to halve the response being measured. Consider SAQWLNNYKKGYGYG [Design C1WT], for which the IC50 on DRB1*0301 (setting [1]) is more than 250 µM; on DRB1*0401 (setting [2]) it was more than 250 µM; on DRB1*0701 (setting [3]) it was more than 250 µM; at DRB1*0801 (setting [4]), 13.7 µM; at DRB1*1501 (setting [5]) it was 101 µM.

As to HLHFQTMVNDFSNPTAQ [Peptide 18_22], the half-inhibitory concentration (IC50) on DRB1*0101 is less than 10 nM; on DRB1*0301 it was 28.2 µM; at DRB1*0401, less than 0.01 µM; on DRB1*0701, 111 µM; on DRB1*0801, more than 250 µM; at DRB1*1101, less than 10 nM. In addition, the 50% inhibitory concentration (IC50) is more than 250 µM on DRB1*1301 and less than 0.01 µM at DRB1*1501.

As to DHVKAGQIIGWSGSTGY [Peptide Y93H], the half-inhibitory concentration (IC50) on DRB1*0301 is more than 250 µM; at DRB1*0401, more than 250 µM; at DRB1*0801, more than 250 µM; at DRB1*1101, more than 250000 nM; on DRB1*1301, more than 250 µM; on DRB1*1501, less than 0.01 µM.

As to DYVEAGQQIGWSGSTGY [Peptide 95-99], the half-maximal inhibitory concentration (IC50) was less than 10 nM on DRB1*0101 (DRB1*0101, read-out: IC50); more than 250 µM at DRB1*0301 (DRB1*0301, read-out: IC50); 104 µM on DRB1*0701 (DRB1*0701, read-out: IC50); more than 250 µM at DRB1*0801 (DRB1*0801, read-out: IC50); more than 250 µM at DRB1*1301 (DRB1*1301, read-out: IC50); less than 0.01 µM at DRB1*1501 (DRB1*1501, read-out: IC50).

For HLHFQRMVNSFSNPTAQ [Design C5WT], the IC50 on DRB1*0301 (DRB1*0301, read-out: IC50) is more than 250 µM; at DRB1*0401 (DRB1*0401, read-out: IC50), 0.05 µM; on DRB1*0701 (DRB1*0701, read-out: IC50) it was 15.2 µM; at DRB1*0801 (DRB1*0801, read-out: IC50), 22 µM; at DRB1*1101 (DRB1*1101, read-out: IC50), less than 10 nM; at DRB1*1301 (DRB1*1301, read-out: IC50) it was more than 250 µM. Further, the IC50 on DRB1*1501 (DRB1*1501, read-out: IC50) was less than 0.01 µM.

Take “Asn13His: full-length lysostaphin single point mutant”: the “binder class DRB1*1301” value with DRB1*1301 is on record as “weak (weak if an IC50 value was in the 1-10 μM range)”.

Consider “Leu83Met: full-length lysostaphin single point mutant”, for which the “binder class DRB1*0101” value with DRB1*0101 is reported as “weak (weak if an IC50 value was in the 1-10 μM range)”. For the same molecule, the “binder class DRB1*0301” value with DRB1*0301 was “non-binder (All peptides above 10 μM were considered non-binders)”. In addition, in the test with DRB1*0701, the “binder class DRB1*0701” value is recorded as “moderate (moderate if an IC50 value was in the 0.1-1 μM range)” and the “fold decrease in binding vs wild-type peptide, 0701” value is “two-fold”. In the test with DRB1*0801, the “fold decrease in binding vs wild-type peptide, 0801” value was “approximately five-fold”. Besides, in the test with DRB1*1101, the “fold reduction in binding vs wild-type peptide, 1101” value is recorded as “ten-fold”. In addition, in the test with DRB1*1301, the “binder class DRB1*1301” value is “weak (weak if an IC50 value was in the 1-10 μM range)”. The “binder class DRB1*1501” value with DRB1*1501 is “moderate (moderate if an IC50 value was in the 0.1-1 μM range)”.

Turning to “Asn12Gly: full-length lysostaphin single point mutant”, in the test with DRB1*0101, the “binder class DRB1*0101” value is “strong (strong binder if an IC50 value of less than 0.1 μM was observed)”.

As for SAQWLNHYKKGYGYG [Design N13H], the IC50 on DRB1*0101 (setting [6]) was more than 250000 nM; at DRB1*0301 (setting [1]), more than 250 µM; on DRB1*0401 (setting [2]) it was more than 250 µM; at DRB1*0701 (setting [3]) it was more than 250 µM; on DRB1*0801 (setting [4]), more than 250 µM; at DRB1*1501 (setting [5]), more than 250 µM.

In the case of SAQWLGNYKKGYGYG [Design N12G], the IC50 was less than 10 nM on DRB1*0101 (setting [6]); more than 250 µM on DRB1*0301 (setting [1]); more than 250 µM on DRB1*0401 (setting [2]); more than 250 µM on DRB1*0701 (setting [3]); more than 250 µM on DRB1*1301 (synthetic peptide competing with biotinylated control peptide, read-out: IC50 1301); more than 250 µM at DRB1*1501 (setting [5]).

GVDFFMNEGTPVKAISSGKIV [Design 141E]: the half-maximal inhibitory concentration (IC50) at DRB1*0301 (setting [1]) and at DRB1*0801 (setting [4]) was more than 250 µM in each case.
